This is an account of results in publication PMC4815073, “Targeting of tubulin polymerization and induction of mitotic blockage by Methyl 2-(5-fluoro-2-hydroxyphenyl)-1H-benzo[d]imidazole-5-carboxylate (MBIC) in human cervical cancer HeLa cell” (Journal of Experimental & Clinical Cancer Research : CR, 2016).

Each structure is given as a SMILES string.

For one data set, the system named is WRL-68 cells. Briefly: MTT cytotoxicity assay, WRL-68 normal liver cells. It counts as cell-based, human. The following applies: Homo sapiens. The text has this:
(§1) The human cervical cancer cell-line, HeLa (CCL-2.2; ATCC, Manassas, VA), HCT-116 (CCL-247; ATCC, Manassas, VA), A549 (CCL-185; ATCC, Manassas, VA), HepG-2 (HB-8065; ATCC, Manassas, VA) and WRL-68 (CL-48; ATCC, Manassas, VA), were obtained from American Type Culture Collection (ATCC). HeLa, A549, HepG2 and WRL68 cells were maintained in Dulbecco’s Modified Eagle Medium (DMEM, Life Technologies, Inc, Rockville, MD). HCT-116 was obtained in McCoy’s 5a Medium Modified (Life Technologies, Inc, Rockville, MD) supplemented with 10 % fetal bovine serum and 1 % penicillin/streptomycin. Cells were incubated at 37 °C in a humidified cell culture 5 % CO2 incubator. Cells were passaged until reaching 70-80-% confluency for experimental purposes.
(§2) Cytotoxicity of MBIC was estimated by MTT assay. Briefly, 1 × 10^4 cells/well were seeded in a 96-well plate and incubated at 37 °C in 5 % CO2. After 24 h, cells were treated with different concentrations (0.02, 0.04, 0.1, 0.2, 0.4, 0.8, 1.5, 3, 6, 12, 25, 50 μM) of MBIC. 0.01 % DMSO was used as vehicle control. Cells were incubated for 24 and 48 h at 37 °C. Subsequently, 50 μl/well of 3-(4,5-dimethylthiazol-2-yl)-2,5-diphenyltetrazolium bromide (MTT, 2 mg/ml) was added and incubated for 2 h. After the incubation, the media was discarded and 100 μl DMSO was replaced into each well to dissolve the formazan crystal. The colorimetric assay was quantified at 570 nm wavelength using Chameleon V microplate reader (Hidex, Turku, Finland). The anti-proliferation activity of MBIC was expressed as an IC50 value. The percentage of cell viability was calculated as described previously.
For orientation: Formazan colour is commonly taken as a measure of viable cells.

In data set [1] the test system is HeLa cells expressing EGFP-α-tubulin, EGFP-CENP-A and histone H2B-mCherry. Briefly: Live-cell imaging of mitotic spindle. It counts as cell-based, human. The following applies: MBIC 10 μM, nocodazole 2 μM; imaged at 15 min intervals. As for the experimental part: HeLa cells expressing EGFP-α-tubulin, EGFP-CENP-A and histone H2B-mCherry were grown in glass chambers (Thermo Scientific, USA). Thirty minutes before imaging, the medium was changed to pre-warmed Leibovitz’s L-15 medium (Life Technologies) supplemented with 20 % fetal bovine serum and 20 mM HEPES, pH 7.0. Recordings were made in a temperature-controlled incubator at 37 °C. Images were collected with an Olympus IX-71 inverted microscope (Olympus) controlled by DeltaVision softWoRx (Applied Precision) using a 20x 0.75 NA UPlan SApochromat objective lens (Olympus). Z-series of six sections in 3 μm increments were captured every 15 min. Image stacks were projected.

Data set [2] concerns HeLa cells. The data set can be described thus: Drug combination assay (MTT, Chou-Talalay, CampuSyn). It counts as cell-based. The conditions noted are these: Homo sapiens, 24 h, drug alone, read-out: (Dm)IC50 Drug 2 (MBIC alone). How it is done: In order to discover the synergistic effects of MBIC with conventional drugs briefly, cells were seeded in 1 × 10^4 cells/well and were incubated at 37 °C overnight. […] Also, the MBIC, combined with each of the selected conventional drugs in a 1:1 ratio, were diluted in concentration from 50 μM to 0.1 μM. Cell viability assay (MTT assay) was performed 24 h post-treatment and absorbance were measured in a microplate reader to find out the IC50 for each conventional drug alone and in combination with MBIC on HeLa cells. For this analysis, we used the commercial software package CampuSyn (Biosoft, Cambridge, United Kingdom; Ref.9). […] Furthermore, the software produced an automated isobologram and fraction affected-combination index (Fa-CI) plot.

In data set [3] the test system is HeLa cells. Briefly: MTT cytotoxicity assay, HeLa. It counts as cell-based, human. The following applies: for IC50: Homo sapiens, HeLa, MTT; for SI (Selectivity Index): IC50 WRL-68 / IC50 HeLa.
From the text: as §1, §2

The test system of data set [4] is HeLa cells. The data set can be described thus: Annexin V-FITC/PI apoptosis detection by flow cytometry. In kind it is cell-based, human. The conditions noted are these: 24 h. As for the experimental part: (§3) Apoptosis was detected using BD Pharmingen Annexin V-FITC Apoptosis Detection Kit as per manufacturer’s protocol. Briefly, cells were seeded in 25 cm^2 culture flasks (10 × 10^5 cells/flask) and were treated in 3 different MBIC concentrations for 24 and 48 h. Later, treated cells were harvested and washed with 1 ml of 1X Phosphate Buffered-Saline (PBS) before adding 200 μl 1X annexin-binding buffer. 10 μl of annexin V-FITC and 10 μl of PI were added to each 200 μl of cell suspension. Cells were then incubated in total darkness for 15 min at room temperature. 500 μl of 1X annexin-binding buffer was added just before the flow cytometry analysis.

Assay in data set [5]: as above
The following applies: human, HeLa cells, read-out: viable cells (Q3, annexin V- PI-). It counts as cell-based, human. As for the experimental part: as §3

The test system of data set [6] is human cancer cell lines (HCT-116, A549, HepG-2, HeLa). The data set can be described thus: MTT cytotoxicity assay, human cancer cell lines taken together. It counts as cell-based.
From the text: as §1
as §2, with “Subsequently, 50 μl/well of 3-(4,5-dimethylthiazol-2-yl)-2,5-diphenyltetrazolium bromide (MTT, 2 mg/ml) was added and incubated for 2 h. After the incubation, the media was discarded and 100 μl DMSO was replaced into each well to dissolve the formazan crystal.” left out

The next data set deals with HepG-2 cells. The data set can be described thus: MTT cytotoxicity assay, HepG-2. In kind it is cell-based, human. The following applies: for IC50: Homo sapiens, HepG2, MTT.
From the text: as §1, §2

The subject of the next data set is HCT-116 cells. Briefly: MTT cytotoxicity assay, HCT-116. It counts as cell-based, human. The conditions noted are these: for IC50: Homo sapiens, MTT.
From the text: as §1, §2

For another data set, the target named is T1, tubulin (Sus scrofa, UniProt P02550+P02554).
T1 construct: purchased Cytoskeleton BK011P
T1 sequence (P02550 whole entry): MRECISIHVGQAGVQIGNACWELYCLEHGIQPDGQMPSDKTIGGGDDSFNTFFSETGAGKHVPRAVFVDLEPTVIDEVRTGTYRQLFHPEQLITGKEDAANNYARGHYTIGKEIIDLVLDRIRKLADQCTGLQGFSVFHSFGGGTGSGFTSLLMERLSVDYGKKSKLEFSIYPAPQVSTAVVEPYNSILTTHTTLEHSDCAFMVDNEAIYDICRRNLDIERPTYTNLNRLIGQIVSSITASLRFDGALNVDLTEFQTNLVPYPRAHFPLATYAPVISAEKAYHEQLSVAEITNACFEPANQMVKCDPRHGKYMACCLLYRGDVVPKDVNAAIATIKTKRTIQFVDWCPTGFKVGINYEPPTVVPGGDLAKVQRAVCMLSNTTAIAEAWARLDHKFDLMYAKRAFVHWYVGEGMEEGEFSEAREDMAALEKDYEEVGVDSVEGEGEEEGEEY
T1 sequence (P02554 whole entry): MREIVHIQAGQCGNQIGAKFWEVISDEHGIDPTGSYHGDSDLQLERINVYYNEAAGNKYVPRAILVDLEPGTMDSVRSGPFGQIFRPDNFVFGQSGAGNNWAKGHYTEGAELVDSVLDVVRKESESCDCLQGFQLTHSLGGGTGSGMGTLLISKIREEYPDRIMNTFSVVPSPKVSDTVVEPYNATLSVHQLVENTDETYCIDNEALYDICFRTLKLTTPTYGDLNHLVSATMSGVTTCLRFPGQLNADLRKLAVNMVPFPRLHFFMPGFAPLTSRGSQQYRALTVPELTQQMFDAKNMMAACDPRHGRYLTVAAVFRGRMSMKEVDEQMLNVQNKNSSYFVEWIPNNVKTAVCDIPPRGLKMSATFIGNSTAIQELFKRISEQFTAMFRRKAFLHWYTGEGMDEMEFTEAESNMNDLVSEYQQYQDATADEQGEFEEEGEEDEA
Briefly: Tubulin polymerization assay. It counts as biochemical. The conditions noted are these: 10 μM drug, 3 mg/ml tubulin, 37 °C, 340 nm; untreated 12 mOD/min. As for the experimental part:
To investigate the effect of MBIC on tubulin polymerization, a fluorescence-based tubulin polymerization assay kit (Cytoskeleton-Cat. # BK011P) was used according to the manufacturer’s protocol. Briefly, 200 μl of pure tubulin protein was re-suspended in 420 μl of ice cold Tubulin Polymerization Buffer (TPB) to give a final concentration of 3 mg/ml tubulin, supplemented with 80 mM PIPES, 2 mM MgCl2, 0.5 mM EGTA, 1 mM GTP, 20 % (v/v) glycerol. 100 μl of tubulin reaction mixture were added to each well in a 96-well plate containing the selected concentration of MBIC (10 μM). […] Samples were mixed well and the tubulin assembly was monitored by an increase in fluorescence emission at 340 nm in kinetic mode for 120 min at 37 °C using a plate reader (Infinite® 200 PRO—Tecan plate reader, USA).

A word on the IC50: it is the midpoint of a concentration-inhibition curve. Regarding `COC(=O)c1ccc2[nH]c(-c3cc(F)ccc3O)nc2c1` [MBIC, Methyl 2-(5-fluoro-2-hydroxyphenyl)-1H-benzo[d]imidazole-5-carboxylate], the half-inhibitory concentration (IC50) with WRL-68 cells (WRL68, 24 hours) is 10100 ± 1200 nM; in the data set with WRL-68 cells (WRL68, 48 hours), 7160 ± 900 nM; with HeLa cells [2], 210 ± 20 nM; with HeLa cells [3] (24 hours), 210 ± 20 nM; with HeLa cells [3] (48 hours), 190 ± 30 nM; in data set [6] it was less than 5000 nM. Further, the half-maximal inhibitory concentration (IC50) was 2920 ± 100 nM in the data set with HepG-2 cells (HepG-2, 24 hours); 1030 ± 90 nM in the data set on HepG-2 cells (HepG-2, 48 hours); 2720 ± 400 nM with HCT-116 cells (HCT-116, 24 hours); 2010 ± 300 nM in the data set with HCT-116 cells (HCT-116, 48 hours). In addition, in [1], the “mitotic spindle formation in live-cell imaging” value is recorded as “did not form the spindle”. Also, the “SI (Selectivity Index)” value turned out to be 48.04 with HeLa cells [3] (24 hours); 37.68 in the data set on HeLa cells [3] (48 hours); 3.45 with HepG-2 cells (IC50 WRL-68 / IC50 HepG-2, 24 hours); 6.95 in the data set with HepG-2 cells (IC50 WRL-68 / IC50 HepG-2, 48 hours); 3.70 in the data set with HCT-116 cells (IC50 WRL-68 / IC50 HCT-116, 24 hours); 3.56 in the data set with HCT-116 cells (IC50 WRL-68 / IC50 HCT-116, 48 hours). Further, the “selectivity in HeLa cells” value in the data set on HeLa cells [3] (versus WRL-68, 24 and 48 h) is on record as more than 30 fold. The “late apoptotic cells (Q2, annexin V+ PI+)” value with HeLa cells [4] (0.21 μM) is given as 44.8 ± 2.3%; with HeLa cells [4] (1 μM), 74.8 ± 4.2%. Besides, the viability at 24 h, 0.21 µM in data set [5] (0.21 μM) came out at 48.8%. In addition, the viability at 24 h, 0.42 µM in data set [5] (0.42 μM) was 36.2%. For the same compound, the viability at 24 h, 1 µM in [5] (1 μM) was 17.4%. Besides, at tubulin, the “Tubulin polymerization maximal velocity (Vmax)” value was found to be 2.45 mOD/min.
